Measured values taken from US8003734B2, “Biologically tolerated low molecular weight polyethylenimines” (priority 1997, dated 2011).

Columns and labels:
L929 mouse fibroblasts = test: Cytotoxicity study, MTT assay; type: cell-based
Method: L929 mouse fibroblasts were cultured under the standard conditions with which the skilled person is familiar. These cells were sown in 96-well cell culture plates at a density of 8000 cells/well and cultured for 24 h before they were used for toxicity experiments.
The toxicity of the polymers was determined on L929 mouse fibroblasts using the MTT assay in accordance with the method of Mosmann et al. [Mosmann, J. Immunol. Methods 65: 55-63 (1983)]. The polymer dilution series were prepared in DMEM containing 10% FCS and 2 mM glutamine and sterilized by filtration (0.2 μm, Schleicher & Schuell, Dassel). The pH and osmolarity of the solutions were corrected if required. After a pre-incubation of 24 h, the cells were treated with the polymer solutions and incubated for 1, 3, 12 and 24 h. The viability of the cells was quantified UV-photometrically by measuring the formazan concentration.
In a second series of experiments, the cells were generally only treated with the polymers for 1 h, after which they were washed and then cultured for a further 3, 12 and 24 h in PEI-free cell culture medium. The evaluation was carried out as described above.
The toxicity of the PEIs was determined in vitro on L929 mouse fibroblasts, which various standard organizations recommend as the standard cell culture model for determining the cytotoxicity and biocompatibility of polymers. […]

[1] = system: pig brain capillary endothelial cells; test: In-vitro transfection of primary cultures, β-galactosidase reporter gene; type: cell-based
Method: The cells, which were incubated at 37° C., 95% relative atmospheric humidity and 5% CO2, were passaged twice a week, after having reached confluence, using trypsin/EGTA solution (2.5% stock solution of trypsin, 50 mM solution of ethylene glycol tetraacetic acid, PBS, pH 7.4, in a ratio of 1:1:8). Since the cells detached from the substratum in cell clusters rather than individually, a ⅛ passage was carried out in each case. Cerebral capillary endothelial cells were isolated and cultured in accordance with the method of Bowman et al. and Mischek et al. [Mischek et al., Cell. Tiss. Res. 256: 221-226 (1989)]. […]
The ECV 304 cells and 3T3 mouse fibroblasts, which were sown in 3 cm^2 Petri dishes, and the primary endothelial cells, which were sown in 6-well culture plates, were washed with PBS, pH 7.4, immediately before the experiments and provided with new, serum-supplemented medium. […] The cells were subsequently incubated for 60 hours and the luciferase or β-galactosidase activity was determined in analogy with the manufacturer's instructions. […]
The transfection efficiency of the PEI complexes was determined both with cell lines (3T3 mouse fibroblasts and the human endothelial cell line ECV304) and with primary cultures (pig brain capillary endothelial cells). […]

Substance: polyethylenimine [LMW PEI]
- cytotoxicity for fibroblasts as compared with that of HMW PEI (L929 mouse fibroblasts): markedly reduced
- in-vitro maximum tolerable, noncytotoxic dose (MTD) of the complexes [1]: 90 μg/10 μg of DNA
